Tests used:
Assay in all cases: Test E greenhouse herbicide test, pre- and postemergence
Type in all cases: in vivo
[1] = tested on: arrowleaf sida (Sida rhombifolia)
Outline: (§1)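 Pre- and postemergence sprays, same solvent–surfactant formulation. Substrate: silt loam (pre), peat-based mix (post, 1–4 leaf, 2–18 cm). Readout: visual control rating 0–100 against controls at 14–21 d.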

[2] = tested on: barnyardgrass (Echinochloa crus-galli)
Outline: as §1

corn (Zea mays) = tested on: corn (Zea mays)
Outline: as §1

[3] = tested on: crabgrass, large (large crabgrass, Digitaria sanguinalis); settings: Preemergence
Outline: as §1

[4] = tested on: dayflower (Virginia (VA) dayflower, Commelina virginica)
Outline: as §1

[5] = tested on: foxtail, giant (giant foxtail, Setaria faberii); settings: Preemergence
Outline: as §1

[6] = tested on: goosegrass (Eleusine indica); settings: Preemergence
Outline: as §1

[7] = tested on: horseweed (Conyza canadensis)
Outline: as §1

[8] = tested on: lambsquarters (Chenopodium album); settings: Preemergence
Outline: as §1

[9] = tested on: momingglory (Ipomoea coccinea); settings: Preemergence
Outline: as §1

[10] = tested on: nightshade (eastern black nightshade, Solanum ptycanthum); settings: Preemergence
Outline: as §1

[11] = tested on: panicum, fall (fall panicum, Panicum dichotomiflorum)
Outline: as §1

[12] = tested on: pigweed, palmer (palmer pigweed, Amaranthus palmeri)
Outline: as §1

[13] = tested on: ragweed (common ragweed, Ambrosia elatior)
Outline: as §1

[14] = tested on: sandbur (southem sandbur, Cenchrus echinatus)
Outline: as §1

[15] = tested on: surinam grass (Brachiaria decumbens); settings: Preemergence
Outline: as §1

[16] = tested on: velvetleaf (Abutilon theophrasti); settings: Preemergence
Outline: as §1

[17] = 62 g ai/ha, Postemergence, scale 0 to 100 (0 no effect, 100 complete control)
[18] = 62 g ai/ha, Preemergence, scale 0 to 100 (0 no effect, 100 complete control)
[19] = 125 g ai/ha, Postemergence, scale 0 to 100 (0 no effect, 100 complete control)
[20] = 125 g ai/ha, Preemergence, scale 0 to 100 (0 no effect, 100 complete control)
[21] = Postemergence, 16 g ai/ha, visual, scale 0 no effect to 100 complete control
[22] = Postemergence, 31 g ai/ha, visual, scale 0 no effect to 100 complete control
[23] = Preemergence, 16 g ai/ha, scale 0 to 100, 0 no effect, 100 complete control
[24] = Preemergence, 31 g ai/ha, scale 0 to 100, 0 no effect, 100 complete control
[25] = 62 g ai/ha, scale 0 to 100 (0 no effect, 100 complete control)
[26] = 125 g ai/ha, scale 0 to 100 (0 no effect, 100 complete control)
[27] = 16 g ai/ha, scale 0 to 100, 0 no effect, 100 complete control
[28] = 31 g ai/ha, scale 0 to 100, 0 no effect, 100 complete control

CCC(=O)Oc1c(C)nn(C)c(=O)c1-c1c(C)sc2ccc(Cl)cc12 [Compound 109]
Plant response rating, Arrowleaf Sida [1, 17]: 60 | Plant response rating, Arrowleaf Sida [1, 18]: 30 | Plant response rating, Arrowleaf Sida [1, 19]: 80 | Plant response rating, Arrowleaf Sida [1, 20]: 35 | Plant response rating, Arrowleaf Sida [1, 21]: 50 | Plant response rating, Arrowleaf Sida [1, 22]: 65 | Plant response rating, Arrowleaf Sida [1, 23]: 40 | Plant response rating, Arrowleaf Sida [1, 24]: 35 | Plant response rating, Barnyardgrass [2, 17]: 30 | Plant response rating, Barnyardgrass [2, 18]: 10 | Plant response rating, Barnyardgrass [2, 19]: 40 | Plant response rating, Barnyardgrass [2, 20]: 25 | Plant response rating, Barnyardgrass [2, 21]: 25 | Plant response rating, Barnyardgrass [2, 22]: 30 | Plant response rating, Barnyardgrass [2, 23]: 0 | Plant response rating, Barnyardgrass [2, 24]: 0 | Plant response rating, Corn (corn (Zea mays); [17]): 10 | Plant response rating, Corn (corn (Zea mays); [18]): 0 | Plant response rating, Corn (corn (Zea mays); [19]): 20 | Plant response rating, Corn (corn (Zea mays); [20]): 0 | Plant response rating, Corn (corn (Zea mays); [21]): 0 | Plant response rating, Corn (corn (Zea mays); [22]): 0 | Plant response rating, Corn (corn (Zea mays); [23]): 0 | Plant response rating, Corn (corn (Zea mays); [24]): 0 | Plant response rating, Crabgrass, Large [3, 25]: 40 | Plant response rating, Crabgrass, Large [3, 26]: 35 | Plant response rating, Crabgrass, Large [3, 27]: 0 | Plant response rating, Crabgrass, Large [3, 28]: 0 | Plant response rating, Dayflower, VA [4, 17]: 50 | Plant response rating, Dayflower, VA [4, 18]: 25 | Plant response rating, Dayflower, VA [4, 19]: 60 | Plant response rating, Dayflower, VA [4, 20]: 25 | Plant response rating, Dayflower, VA [4, 21]: 30 | Plant response rating, Dayflower, VA [4, 22]: 30 | Plant response rating, Dayflower, VA [4, 23]: 0 | Plant response rating, Dayflower, VA [4, 24]: 25 | Plant response rating, Foxtail, Giant [5, 25]: 40 | Plant response rating, Foxtail, Giant [5, 26]: 80 | Plant response rating, Foxtail, Giant [5, 27]: 0 | Plant response rating, Foxtail, Giant [5, 28]: 35 | Plant response rating, Goosegrass [6, 25]: 25 | Plant response rating, Goosegrass [6, 26]: 50 | Plant response rating, Goosegrass [6, 27]: 0 | Plant response rating, Goosegrass [6, 28]: 20 | Plant response rating, Horseweed [7, 17]: 90 | Plant response rating, Horseweed [7, 18]: 100 | Plant response rating, Horseweed [7, 19]: 85 | Plant response rating, Horseweed [7, 20]: 100 | Plant response rating, Horseweed [7, 21]: 60 | Plant response rating, Horseweed [7, 22]: 80 | Plant response rating, Horseweed [7, 23]: 0 | Plant response rating, Horseweed [7, 24]: 100 | Plant response rating, Lambsquarters [8, 26]: 98 | Plant response rating, Lambsquarters [8, 27]: 0 | Plant response rating, Lambsquarters [8, 28]: 95 | Plant response rating, Morningglory [9, 26]: 65 | Plant response rating, Morningglory [9, 27]: 0 | Plant response rating, Morningglory [9, 28]: 0 | Plant response rating, Nightshade [10, 26]: 98 | Plant response rating, Nightshade [10, 27]: 25 | Plant response rating, Nightshade [10, 28]: 65 | Plant response rating, Panicum, Fall [11, 17]: 65 | Plant response rating, Panicum, Fall [11, 19]: 80 | Plant response rating, Panicum, Fall [11, 20]: 95 | Plant response rating, Panicum, Fall [11, 21]: 50 | Plant response rating, Panicum, Fall [11, 22]: 60 | Plant response rating, Panicum, Fall [11, 23]: 75 | Plant response rating, Panicum, Fall [11, 24]: 80 | Plant response rating, Pigweed, Palmer [12, 17]: 65 | Plant response rating, Pigweed, Palmer [12, 19]: 100 | Plant response rating, Pigweed, Palmer [12, 20]: 85 | Plant response rating, Pigweed, Palmer [12, 21]: 60 | Plant response rating, Pigweed, Palmer [12, 22]: 50 | Plant response rating, Pigweed, Palmer [12, 23]: 0 | Plant response rating, Pigweed, Palmer [12, 24]: 20 | Plant response rating, Ragweed [13, 17]: 90 | Plant response rating, Ragweed [13, 19]: 95 | Plant response rating, Ragweed [13, 20]: 100 | Plant response rating, Ragweed [13, 21]: 80 | Plant response rating, Ragweed [13, 22]: 85 | Plant response rating, Ragweed [13, 23]: 0 | Plant response rating, Ragweed [13, 24]: 5 | Plant response rating, Sandbur [14, 19]: 70 | Plant response rating, Sandbur [14, 20]: 75 | Plant response rating, Sandbur [14, 21]: 60 | Plant response rating, Sandbur [14, 22]: 40 | Plant response rating, Sandbur [14, 23]: 0 | Plant response rating, Sandbur [14, 24]: 40 | Plant response rating, Surinam Grass [15, 26]: 40 | Plant response rating, Surinam Grass [15, 27]: 0 | Plant response rating, Surinam Grass [15, 28]: 30 | Plant response rating, Velvetleaf [16, 26]: 65 | Plant response rating, Velvetleaf [16, 27]: 0 | Plant response rating, Velvetleaf [16, 28]: 0
